Patent US6518243B1, “Desleucyl glycopeptide antibiotics and methods of making same” (Trustees of Princeton University, priority 1999, dated 2003)

What was measured:
E. faceium (ATCC 49624) = experiment: Zone of inhibition screen, 96 well agar array format;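 note: score 3 means fourfold and score 4 sixteenfold the reference zone size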; format: cell-based, E. faecium; details: zone of inhibition relative to 1 mg/ml stock solution of p-chlorobiphenylvancomycin
Protocol: The antibacterial activity of each of the compounds against the bacterial strains E. faceium (ATCC 49624), S. epidermidis (ATCC 12228), S. aureus (ATCC 29213), E. faecalis (CL 4877) and E. faecalis (ATCC 292121) was tested. Each of the compounds was screened in a 96 will agar array format.

E. faecalis (CL 4877) = experiment: as above; format: cell-based; design: scale not given here; details: zone of inhibition relative to 1 mg/ml stock solution of p-chlorobiphenylvancomycin
Summary of the method: (§1)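 Read-out is antibacterial activity on agar laid out as a 96-well array; every compound went through all strains of the panel.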

S. aureus (ATCC 29213) = experiment: as above; format: cell-based; design: scale not given here; details: zone of inhibition relative to 1 mg/ml stock solution of p-chlorobiphenylvancomycin
Summary of the method: as §1

[1] = tested on: S. epidermidis (ATCC 12228); experiment: as above; format: cell-based; design: scale not given here; details: zone of inhibition relative to 1 mg/ml stock solution of p-chlorobiphenylvancomycin
Summary of the method: as §1

E. faecium ATCC 49624 = experiment: MIC determination in BHI media, OD600; format: cell-based; details: BHI + 0.1% casamino acids, 18 hours at 37° C., ≧90% OD600 inhibition
Protocol: (§2) Logarithmically growing cells were diluted to approximately 5×10^5 CFU/ml and subjected to test compounds solubilized and serially diluted in DMSO. […] After 18 hours at 37° C., the OD600 was determined by reading the ninety-six well microtiter plates on a microplate reader. For a given concentration, an MIC determination was made if: […]

S aureus ATCC 29213 = experiment: MIC determination in BHI media, OD600; format: cell-based; details: BHI + 0.1% casamino acids, 18 hours at 37° C., ≧90% OD600 inhibition
Protocol: as §2

S. Aureus ATCC 33591 = experiment: MIC determination in BHI media, OD600; format: cell-based; details: BHI + 0.1% casamino acids, 18 hours at 37° C., ≧90% OD600 inhibition
Protocol: as §2

Row | MIC E. faecium ATCC 49624 (E. faecium ATCC 49624) [µg/mL] | MIC S. aureus ATCC 29213 (S aureus ATCC 29213) [µg/mL] | MIC S. aureus ATCC 33591 (S. Aureus ATCC 33591) [µg/mL] | Structure (SMILES) | zone score, E. faecium ATCC 49624 (E. faceium (ATCC 49624)) | zone score, E. faecalis CL 4877 (E. faecalis (CL 4877)) | zone score, S. aureus ATCC 29213 (S. aureus (ATCC 29213)) | zone score, S. epidermidis ATCC 12228 [1]
1 | – | – | – | CC1OC(OC2C(Oc3c4cc5cc3Oc3ccc(cc3Cl)C(O)C3NC(=O)C(NC(=O)C5NC(=O)C(CC(N)=O)NC(=O)C(NC(=O)CN5CCN(CCN)CC5)C(O)c5ccc(c(Cl)c5)O4)c4ccc(O)c(c4)-c4c(O)cc(O)cc4C(C(=O)O)NC3=O)OC(CO)C(O)C2O)CC(C)(NCc2ccc(-c3ccc(Cl)cc3)cc2)C1O (centres unmarked) [Compound 33] | 2 | 2 | 2 | –
2 | – | – | – | CC(O)C(N)C(=O)NC1C(=O)NC(CC(N)=O)C(=O)NC2C(=O)NC3C(=O)NC(C(=O)NC(C(=O)O)c4cc(O)cc(O)c4-c4cc3ccc4O)C(O)c3ccc(c(Cl)c3)Oc3cc2cc(c3OC2OC(CO)C(O)C(O)C2OC2CC(C)(NCc3ccc(-c4ccc(Cl)cc4)cc3)C(O)C(C)O2)Oc2ccc(cc2Cl)C1O (centres unmarked) [Compound 43] | 2 | 2 | – | –
3 | – | – | – | CC(=O)NCSC(C)(C)C(N)C(=O)NC1C(=O)NC(CC(N)=O)C(=O)NC2C(=O)NC3C(=O)NC(C(=O)NC(C(=O)O)c4cc(O)cc(O)c4-c4cc3ccc4O)C(O)c3ccc(c(Cl)c3)Oc3cc2cc(c3OC2OC(CO)C(O)C(O)C2OC2CC(C)(NCc3ccc(-c4ccc(Cl)cc4)cc3)C(O)C(C)O2)Oc2ccc(cc2Cl)C1O (centres unmarked) [Compound 84] | 2 | – | 2 | 2
4 | – | – | – | CC1OC(OC2C(Oc3c4cc5cc3Oc3ccc(cc3Cl)C(O)C3NC(=O)C(NC(=O)C5NC(=O)C(CC(N)=O)NC(=O)C(NC(=O)C(N)Cc5cccs5)C(O)c5ccc(c(Cl)c5)O4)c4ccc(O)c(c4)-c4c(O)cc(O)cc4C(C(=O)O)NC3=O)OC(CO)C(O)C2O)CC(C)(NCc2ccc(-c3ccc(Cl)cc3)cc2)C1O (centres unmarked) [Compound 10] | 2 | – | 2 | –
5 | 0.39 | 0.78 | 0.78 | C[C@H]1O[C@H](O[C@H]2[C@H](Oc3c4cc5cc3Oc3ccc(cc3Cl)[C@@H](O)[C@@H](NC(=O)[C@@H](N)Cc3c[nH]c6ccccc36)C(=O)N[C@@H](CC(N)=O)C(=O)N[C@H]5C(=O)N[C@H]3C(=O)N[C@H](C(=O)N[C@@H](C(=O)O)c5cc(O)cc(O)c5-c5cc3ccc5O)[C@H](O)c3ccc(c(Cl)c3)O4)O[C@H](CO)[C@@H](O)[C@@H]2O)C[C@@](C)(NCc2ccc(-c3ccc(Cl)cc3)cc2)[C@H]1O [Compound 12] | – | – | 2 | 2
6 | 0.78 | 0.78 | 0.78 | CC1OC(OC2C(Oc3c4cc5cc3Oc3ccc(cc3Cl)C(O)C3NC(=O)C(NC(=O)C5NC(=O)C(CC(N)=O)NC(=O)C(NC(=O)CNC(=O)CNC(=O)CN)C(O)c5ccc(c(Cl)c5)O4)c4ccc(O)c(c4)-c4c(O)cc(O)cc4C(C(=O)O)NC3=O)OC(CO)C(O)C2O)CC(C)(NCc2ccc(-c3ccc(Cl)cc3)cc2)C1O (centres unmarked) [Compound 67] | – | – | 2 | 2
7 | – | – | – | C[C@H]1O[C@H](O[C@H]2[C@H](Oc3c4cc5cc3Oc3ccc(cc3Cl)[C@@H](O)[C@@H](NC(=O)[C@@H](N)CCCNC(N)=O)C(=O)N[C@@H](CC(N)=O)C(=O)N[C@H]5C(=O)N[C@H]3C(=O)N[C@H](C(=O)N[C@@H](C(=O)O)c5cc(O)cc(O)c5-c5cc3ccc5O)[C@H](O)c3ccc(c(Cl)c3)O4)O[C@H](CO)[C@@H](O)[C@@H]2O)C[C@@](C)(NCc2ccc(-c3ccc(Cl)cc3)cc2)[C@H]1O [Compound 5] | 2 | 2 | – | –
8 | – | – | – | CC1OC(OC2C(Oc3c4cc5cc3Oc3ccc(cc3Cl)C(O)C3NC(=O)C(NC(=O)C5NC(=O)C(CC(N)=O)NC(=O)C(NC(=O)CC(O)C[N+](C)(C)C)C(O)c5ccc(c(Cl)c5)O4)c4ccc(O)c(c4)-c4c(O)cc(O)cc4C(C(=O)O)NC3=O)OC(CO)C(O)C2O)CC(C)(NCc2ccc(-c3ccc(Cl)cc3)cc2)C1O (mixture of isomers) [Compound 151] | 2 | 2 | – | 2
9 | – | – | – | CC1OC(OC2C(Oc3c4cc5cc3Oc3ccc(cc3Cl)C(O)C3NC(=O)C(NC(=O)C5NC(=O)C(CC(N)=O)NC(=O)C(NC(=O)C(N)CCCC[N+](C)(C)C)C(O)c5ccc(c(Cl)c5)O4)c4ccc(O)c(c4)-c4c(O)cc(O)cc4C(C(=O)O)NC3=O)OC(CO)C(O)C2O)CC(C)(NCc2ccc(-c3ccc(Cl)cc3)cc2)C1O.[Cl-] (centres unmarked) [Compound 80] | 2 | – | 2 | –
10 | – | – | – | CC1OC(OC2C(Oc3c4cc5cc3Oc3ccc(cc3Cl)C(O)C3NC(=O)C(NC(=O)C5NC(=O)C(CC(N)=O)NC(=O)C(NC(=O)CCN)C(O)c5ccc(c(Cl)c5)O4)c4ccc(O)c(c4)-c4c(O)cc(O)cc4C(C(=O)O)NC3=O)OC(CO)C(O)C2O)CC(C)(NCc2ccc(-c3ccc(Cl)cc3)cc2)C1O (centres unmarked) [Compound 47] | 2 | 2 | – | –
